# Test: Evaluation of light fastness of dye film
# Type: physicochemical
# Details: residual dye ratio at absorption λmax 48 hours after Xe light irradiation; dye film on glass plate
# Description: Dye-containing coating liquids equal to those of Examples 1 to 3, and Comparative Examples 1 to 4 were prepared, and each coating liquid was applied to a 1.1-mm-thick glass plate by a spin coating method under conditions of 23° C. and 50% RH while changing the rotation rate within a range of 500 to 1,000 rpm. The glass plate with the dye film was stored for 24 hours under conditions of 23° C. and 50% RH, and then subjected to a light fastness test using a merry-go-round-type light fastness tester (Cell Tester Model III manufactured by Eagle Engineering, equipped with WG320 Filter manufactured by Schott). The absorption spectrum of the dye film was measured using UV-1600PC manufactured by SHIMADZU immediately before the light fastness test and 48 hours after the light fastness test, and the change of the absorbancy at the maximum absorption wavelength was evaluated.
row,Structure (SMILES),Light fastness of dye film
1,Cc1n[nH]c2c(/N=N/c3c(C#N)c(C(C)(C)C)nn3C)c(C(C)(C)C)nn12 [Compound (D)],Fair (evaluated as “Fair” when the ratio was 60% or more and less than 70%)
2,Cc1nn2nc(C(C)(C)C)c(/N=N/c3c(C#N)cnn3-c3cc(C(=O)O)cc(C(=O)O)c3)c2n1C [Compound (A-7)],Excellent (Evaluated as “Excellent” when the residual dye ratio was 85% or more at the absorption λmax 48 hours after the irradiation with an Xe light)
3,Cn1nc(C(C)(C)C)c(N=Nc2c(C#N)cnn2-c2cc(C(=O)O)cc(C(=O)O)c2)c1N [Compound (A-1)],Good (evaluated as “Good” when the ratio was 70% or more and less than 85%)
4,CCCCC(CC)COC(=O)Nc1ccc(-c2nn3nc(C(C)(C)C)c(/N=N/c4c(C#N)cnn4-c4cc(C(=O)O)cc(C(=O)O)c4)c3[nH]2)cc1 (stereo not shown) [Compound (C)],Fair (evaluated as “Fair” when the ratio was 60% or more and less than 70%)

# — patent US20080081284A1, “OPTICAL INFORMATION RECORDING MEDIUM” (FUJIFILM Corporation, priority 2006, published 2008)
